Columns and labels:
[1] = test system: NMDA receptors (NR1 and NR2); assay: NMDA receptor activity in Xenopus oocytes, two-electrode voltage clamp; format: cell-based; conditions: Kil6425 10 μM, 2-APB 100 μM, BAPTA 100 μM 3 h; for effect on NMDA-induced inward current: U73122 1 μM; for effect on gintonin-induced NMDA receptor activation: gintonin 1 μg/ml, U73122, U73343 1 μM, genistein 10 μM, PP2, PP3 30 μM
Procedure: cDNAs of NMDA receptor subunits (NR1 and NR2) were employed (Zheng et al., J Neurosci. 17, 8676-8686, 1997). cDNAs (100 ng/40 nl) corresponding to respective NMDA receptor subunits (NR1 and NR2) were injected into animal or vegetal poles of oocytes by use of a […] (VWR Scientific, USA) and incubated for 4-5 days after injection (Zheng et al., J Neurosci. 17, 8676-8686, 1997).
(§1) Xenopus laevis frogs were obtained from Xenopus I (Ann Arbor, Mich.). Their care and handling were in accordance with the highest standards of institutional guidelines. To isolate oocytes, the frogs were operated on under anesthesia with an aerated solution of 3-aminobenzoic acid ethyl ester. Oocytes were separated by treatment with collagenase and agitation for two hours in a Ca^2+-free medium containing 82.5 mM NaCl, 2 mM KCl, 1 mM MgCl2, 5 mM HEPES, 2.5 mM sodium pyruvate, 100 units/ml penicillin and 100 μg/ml streptomycin.
Stage V-VI oocytes were collected and stored in ND96 (96 mM NaCl, 2 mM KCl, 1 mM MgCl2, 1.8 mM CaCl2, and 5 mM HEPES, pH 7.4) supplemented with 50 μg/ml gentamicin. This oocyte containing solution was maintained at 18° C. with continuous gentle shaking while the ND96 medium was changed to a fresh one every day.
Two-electrode voltage-clamp recordings were obtained from individual oocytes placed in a small Plexiglas net chamber (5 ml). Electrophysiological experiments were performed using microelectrodes filled with 3 M KCl (resistance of 0.2-0.7 MΩ) and an Oocyte Clamp amplifier (OC-725C; Warner Instrument, Hamden, Conn.). For physiological recordings of NMDA receptor activity, oocytes were first perfused with Mg^2+-free ND96 (mM: 96 NaOH, 2 KOH, 0.3 CaCl2, 5 HEPES pH 7.6 with methanesulfonic acid). Then, the oocytes were clamped at −60 mV holding potential, followed by recoding NMDA currents (induced by administering […]) (Zheng et al., J Neurosci. 17, 8676-8686, 1997; Chang and Kuo, J Neurosci. 28, 1546-1556, 2008).

[2] = test system: BKCaK+ channels; assay: BKCa K+ channel activity in Xenopus oocytes, two-electrode voltage clamp; format: cell-based; conditions: 2-APB 100 μM, BAPTA-AM, PMA 1 μM; for effect on gintonin-induced BKCaK+ channel activation: Kil6425 10 μM, U73122, U73343 1 μM
Procedure: as §1
Stage V-VI oocytes were collected and stored in ND96 (96 mM NaCl, 2 mM KCl, 1 mM MgCl2, 1.8 mM CaCl2, and 5 mM HEPES, pH 7.4) supplemented with 50 μg/ml gentamicin. This oocyte containing solution was maintained at 18° C. with continuous gentle shaking while the ND96 medium was changed with a fresh one every day.
Two-electrode voltage-clamp recordings were obtained from individual oocytes placed in a small Plexiglas net chamber (5 ml). Electrophysiological experiments were performed using microelectrodes filled with 3 M KCl (resistance of 0.2-0.7 MΩ) and an Oocyte Clamp amplifier (OC-725C; Warner Instrument, CT, USA) to record BKc K^+ channel activity at room temperature (Choi et al., Mol Cells 31, 133-140, 2011). For physiological recordings of BKCaK^+ channel activity, oocytes were first perfused with a Cl^−- and Ca^2+-free solution (mM: 96 NaOH, 2 KOH, 8 Mg-gluconate, 5 HEPES, 5 EGTA, pH 7.4 with methanesulfonic acid) supplemented with 500 μM anthracene-9-carboxylic acid, a Cl^− channel blocker, to block endogenous Cl-channels (Lu et al., J. Biol. Chem. 265, 16190-16194.1990). Then, the oocytes were clamped at −80 mV holding potential, followed by step depolarization from the holding potential to +40 mV at regular intervals of […] for 400 ms to record outward currents.

[3] = target: LPA2 receptor (Homo sapiens, UniProt Q9HBW0); assay: Intracellular free Ca2+ (Fura-2AM) in LPA2-expressing B103 cells; format: cell-based; set-up: host or cells: B103 rat neuroblastoma cells; conditions: LPA2-expressing B103 cells
Description: LPA family receptors are endogenous to cells of most organs. B103 rat neuroblastoma cells, known as LPA receptor-null cells (Valentine et al., Biochim Biophys Acta 1780. 597-605) were transiently transfected with a plasmid (vector) carrying one of genes coding for LPA1(edg-2), LPA2(edg-4), LPA3(edg-7), LPA4, LPA5 and LPA6 receptors or a plasmid carrying none of them (empty vector). Two or three days after transfection, the cells are suspended, and made permeable. Then, the permeable cells are treated with Fura-2AM, a fluorescent dye binding to calcium, and then with gintonin, followed by spectrofluorephotometry to examine whether gintonin induces an increase in intracellular free Ca^2+ level.
(1) preparing large quantities of plasmids carrying respective LPA family receptor genes and an empty plasmid carrying none of them through amplification and purification (maxi-preparation); (2) verifying the expression of LPA receptors wherein B103 cells are transfected with haematoglutin (HA)-tagged LPA receptors, and then subjected to Western blotting analysis using an anti-HA primary antibody and a horseradish peroxidase (HRP)-conjugated secondary antibody to develop a color; (3) verifying the expression of LPA receptors wherein B1-3 cells are transfected with haematoglutin (HA)-tagged LPA receptors, and then subjected to confocal laser microscopy using an anti-HA antibody and a fluorescence dye Cy3-conjugated secondary antibody; (4) transfecting the empty plasmid and each of the plasmids carrying LPA family receptor genes into B103 cells; (5) treating the transfected B103 cells with trypsin (0.05% trypsin with EDTA, w/v) 2-3 days post-transfection, to give a cell suspension; (6) culturing the suspended B103 cells with Fura-2AM (2.5 μM); and (7) treating the suspended B103 cells with gintonin and quantifying a change in intracellular free Ca^2+ level in a cuvette by spectrofluorephotometry using Fura-2AM.
Human LPA (lysophosphatidic acid) receptor subtypes, orphan GPCRs (G protein coupled receptors) and plasmids carrying GPCRs were purchased from Missouri S&T resource Center (www.cDNA.org).
The transient transfection of LPA receptor subtypes was carried out with the aid of Lipofectamine 2000 of Invitrogen. A plasmid (10.8 μg) carrying each LPA receptor (LPA1, LPA2, LPA3, LPA4, LPA5, and LPA6) was transfected into B103 cells grown in 10-cm dishes, and incubated for 2 days prior for use in experiments.
In this Example, gintonin, or ginsenoside Rb1 or Rg1 was examined for its ability to induce a transient increase of [Ca^2+]i in Fura-2AM-loaded B103 cells which were transfected with LPA receptors and in Fura-2AM-loaded B103 cells which were not transfected with LPA receptors. […]

[4] = test system: endogenous CaCC; assay: Endogenous Ca2+-activated channel (CaCC) activation in Xenopus oocytes; format: cell-based, Xenopus laevis; conditions: Kil6425 10 μM; U73122 1 μM; 2-APB 100 μM; BAPTA 100 μM 3 h
[5] = test system: mice; assay: Water maze test, scopolamine-caused spatial cognition impairment; format: in vivo, mouse; conditions: scopolamine alone (0.9 mg/kg i.p.)
Procedure: The Moths water maze set up contained a round water pool (45 cm deep with a diameter of 90 cm) filled with milk-mixed water (22±1° C.) to a depth of 30 cm. It was placed in a dark, sound-shielded room in which various visual cues were established. A white platform (6 cm in diameter, 29 cm in height) was inside the pool, with the top thereof 1 cm below the water surface in the center of one quadrant of the maze
On day 1, the mice were trained to swim for 60 sec. Subsequently, the training was conducted four times a day for four consecutive days, with the platform inside the pool. When the mouse reached the platform, it was allowed to sit on the platform only for 10 sec. If the failed in reaching the platform within 60 sec, it was guided to reach the platform and stay for 10 sec thereon. Afterwards, the mouse was returned back to the home cage and allowed to dry its body under an IR lamp. The time interval between trials was 30 sec.
The time to reach the hidden platform was recorded in each trial using a video camera-based Ethovision System (Nodulus, Wageningen, the Netherlands).
For each training trial, the mouse was placed into the pool at one quadrant at positions which were different day by day. One day after the final training trial, the mouse was evaluated. In this regard, after the platform was removed, the mouse was allowed to swim for 60 sec in search for the platform, and the time to swim in the quadrant where the platform was located was recorded. Gintonin (25, 50, or 100 mg/kg, p.o.) in physiological saline was administered 1 hr before test, every day. Tacrine (10 mg/kg, p.o.) was used as a positive control. Memory impairment was induced by scopolamine (0.9 mg/kg i.p.) 30 min after gintonin administration. For a negative control, only physiological saline was administered.
An examination was made of simple spatial reasoning. To this end, while the mice were allowed to swim in the absence of the rescue platform in the pool, the time period during which the mice swam in the quadrant where the rescue platform had been located was recorded.

[6] = test system: mice; assay: Passive avoidance test, scopolamine-caused long-term memory impairment; format: in vivo, mouse; conditions: scopolamine alone (0.9 mg/kg, i.p.); test session 24 h after learning
Procedure: ICR male mice (25-28 g), purchased from Oriental Bio (Seoul, Korea), were bred according to the guideline of the Institutional Animal Care and Use Committee of Konkuk University, and subjected to passive avoidance test to examine memory maintenance impairment and the protection of gintonin against memory impairment according to the method of Yang et al. (Yang et al., Biol Pharm Bull 32, 1710-1715, 2009).
A passive avoidance test was performed in a training chamber which was divided into two compartments (20×20×20 cm in size, each) separated by an automatically moving guillotine door (5×5 cm): one compartment was lighted while the other remained dark where metal rods installed in a lattice pattern on the bottom so as to deliver an electrical foot shock (Gemini Avoidance System, San Diego, USA).
For an acquisition trial, a mouse was first placed in the lighted compartment, facing away from the dark compartment and allowed to explore for 10 sec. After 10 sec, the guillotine door was opened and the mouse was allowed to explore freely. When the mouse entered the dark compartment with all four paws according to its habit, the guillotine door was closed, and a footshock (0.5 mA, 3 sec duration) was delivered. The latency time to enter the dark compartment was recorded (from the time the door was lifted). 120 min before experimentation, gintonin (25, 50, 100 mg/kg, p.o) was administered while tacrine (10 mg/kg, p.o) was used as a positive control. Memory impairment was induced by injecting scopolamine (0.9 mg/kg, i.p.) 30 min after gintonin or tacrine administration (Araujo et al., Prog Neuropsycopharmcol Biol Psychiatry 29, 411-422, 2005). For a negative control, a physiological saline was used.
24 Hours after the learning session, an experiment was performed without injecting gintonin. The mouse was positioned again in the lighted compartment. After 10 sec of acclimation, the latency time to enter the dark compartment was recorded (from the time the door was lifted).

Chain of LPA2 receptor (Q9HBW0 whole entry): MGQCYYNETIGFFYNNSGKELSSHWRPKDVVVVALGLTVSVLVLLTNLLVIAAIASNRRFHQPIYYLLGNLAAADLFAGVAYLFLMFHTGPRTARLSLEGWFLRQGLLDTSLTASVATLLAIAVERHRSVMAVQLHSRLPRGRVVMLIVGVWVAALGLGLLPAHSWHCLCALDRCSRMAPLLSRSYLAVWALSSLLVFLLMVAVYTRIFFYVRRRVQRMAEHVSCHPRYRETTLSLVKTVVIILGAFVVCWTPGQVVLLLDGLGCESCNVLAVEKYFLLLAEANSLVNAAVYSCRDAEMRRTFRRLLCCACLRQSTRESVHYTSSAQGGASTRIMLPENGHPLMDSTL

Row | SMILES | effect on NMDA-induced inward current [1] | effect on gintonin-induced NMDA receptor activation [1] | effect on gintonin-induced BKCaK+ channel activation [2] | effect on gintonin-induced intracellular calcium increase [3] | effect on gintonin-induced CaCC activation [4] | effect on ginsenoside Rg3-induced BKCaK+ channel activity ([2]; U73122 1 μM) | swimming time in the quadrant where the platform had been located [5] [s] | latency time [6] [s]
1 | COc1ccc2c(c1)CC[C@@H]1[C@@H]2CC[C@]2(C)[C@@H](NCCCCCCN3C(=O)C=CC3=O)CC[C@@H]12 [U73122] | did not block NMDA-induced inward current | blocked gintonin-induced NMDA receptor activation | blocked gintonin-induced BKCaK^+ channel activation | blocked | suppressed gintonin-induced CaCC activation | – | – | –
2 | NCCOB(c1ccccc1)c1ccccc1 [2-APB] | did not block NMDA-induced inward current | blocked gintonin-induced NMDA receptor activation | blocked gintonin-induced BKCaK^+ channel activation | blocked | suppressed gintonin-induced CaCC activation | not blocked | – | –
3 | CN1[C@@H]2C[C@@H](OC(=O)[C@H](CO)c3ccccc3)C[C@H]1[C@@H]1O[C@@H]12 [scopolamine, reference compound] | – | – | – | – | – | – | 13.47 ± 1.86 | 23.07 ± 1.95
